# In ChEMBL document CHEMBL1201862, “PubChem BioAssay data set” (2004):
# Active and inactive are the calls of the source.
# Assays:
# [1] = target: Cytochrome P450 2C9 (Homo sapiens, UniProt P11712)
# [2] = target: T1, Mannose-6-phosphate isomerase (Homo sapiens, UniProt P34949); experiment: MPI inhibition at elevated mannose 6-phosphate – biochemical, fluorescence intensity, high mannose 6-phosphate, primary screen (AID 1220)
# T1 sequence (P34949 whole entry): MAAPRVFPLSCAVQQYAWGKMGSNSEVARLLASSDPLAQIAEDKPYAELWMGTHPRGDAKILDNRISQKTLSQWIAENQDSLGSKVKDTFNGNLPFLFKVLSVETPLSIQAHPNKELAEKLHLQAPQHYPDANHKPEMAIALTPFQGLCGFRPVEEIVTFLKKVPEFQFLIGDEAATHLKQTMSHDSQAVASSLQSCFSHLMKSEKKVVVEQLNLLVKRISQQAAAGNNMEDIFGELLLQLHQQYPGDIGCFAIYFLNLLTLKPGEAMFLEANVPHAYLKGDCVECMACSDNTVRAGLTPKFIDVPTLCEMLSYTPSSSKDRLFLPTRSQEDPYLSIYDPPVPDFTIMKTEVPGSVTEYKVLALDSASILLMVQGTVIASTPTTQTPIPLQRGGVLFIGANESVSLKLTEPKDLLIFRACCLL
# [3] = target: Glyceraldehyde-3-phosphate dehydrogenase (Homo sapiens, UniProt P04406)
# Sequence of Glyceraldehyde-3-phosphate dehydrogenase (P04406 whole entry): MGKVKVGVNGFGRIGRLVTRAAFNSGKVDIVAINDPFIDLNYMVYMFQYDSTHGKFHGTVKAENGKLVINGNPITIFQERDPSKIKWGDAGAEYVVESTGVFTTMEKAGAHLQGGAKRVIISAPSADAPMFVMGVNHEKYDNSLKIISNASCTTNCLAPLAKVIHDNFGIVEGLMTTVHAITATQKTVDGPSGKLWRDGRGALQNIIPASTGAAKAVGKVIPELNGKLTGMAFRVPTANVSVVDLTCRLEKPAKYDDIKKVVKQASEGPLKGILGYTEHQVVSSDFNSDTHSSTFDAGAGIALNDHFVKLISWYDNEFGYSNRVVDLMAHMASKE
# [4] = cells; format: functional, cell-based
# [5] = cells; format: functional, cell-based; remark: listed apart in the source
# [6] = target: T2, Replicative DNA helicase DnaB (Mycobacterium tuberculosis, UniProt P9WMR3); experiment: DnaB intein splicing inhibitors, dose response, biochemical, cell-free fluorescence (AID 449749); format: functional
# T2 sequence (P9WMR3 whole entry): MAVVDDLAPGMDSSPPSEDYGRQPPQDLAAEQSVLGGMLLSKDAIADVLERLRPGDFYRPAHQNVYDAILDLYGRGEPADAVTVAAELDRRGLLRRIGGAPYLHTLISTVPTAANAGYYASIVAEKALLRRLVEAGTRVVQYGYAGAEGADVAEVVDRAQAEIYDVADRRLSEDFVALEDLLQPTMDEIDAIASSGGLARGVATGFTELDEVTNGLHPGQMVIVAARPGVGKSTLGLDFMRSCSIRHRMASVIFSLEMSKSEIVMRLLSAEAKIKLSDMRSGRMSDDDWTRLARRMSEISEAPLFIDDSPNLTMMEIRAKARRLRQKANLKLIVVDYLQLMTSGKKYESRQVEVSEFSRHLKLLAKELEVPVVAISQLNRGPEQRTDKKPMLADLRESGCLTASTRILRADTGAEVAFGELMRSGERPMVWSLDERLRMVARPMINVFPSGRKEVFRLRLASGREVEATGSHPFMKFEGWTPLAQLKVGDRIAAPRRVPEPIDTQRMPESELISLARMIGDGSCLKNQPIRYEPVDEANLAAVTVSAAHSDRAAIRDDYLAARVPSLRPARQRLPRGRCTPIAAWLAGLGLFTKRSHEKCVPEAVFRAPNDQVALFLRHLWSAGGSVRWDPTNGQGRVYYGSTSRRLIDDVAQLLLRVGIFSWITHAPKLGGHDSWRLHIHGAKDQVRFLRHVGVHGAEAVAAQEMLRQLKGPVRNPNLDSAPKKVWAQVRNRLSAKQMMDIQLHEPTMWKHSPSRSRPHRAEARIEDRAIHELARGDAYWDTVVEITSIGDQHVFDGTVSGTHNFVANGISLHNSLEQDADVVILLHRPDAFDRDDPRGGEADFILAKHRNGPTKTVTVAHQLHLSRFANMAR
# [7] = target: T3, Protein RecA (Mycobacterium tuberculosis, UniProt P9WHJ3); experiment: Fluorescence Cell-Free Homogeneous Dose Retest to Identify Inhibitors of RecA-Intein Splicing Activity. [Related pubchem assays (depositor defined):AID2097, AID2223, AID489010, AID492950]; format: functional
# T3 sequence (P9WHJ3 whole entry): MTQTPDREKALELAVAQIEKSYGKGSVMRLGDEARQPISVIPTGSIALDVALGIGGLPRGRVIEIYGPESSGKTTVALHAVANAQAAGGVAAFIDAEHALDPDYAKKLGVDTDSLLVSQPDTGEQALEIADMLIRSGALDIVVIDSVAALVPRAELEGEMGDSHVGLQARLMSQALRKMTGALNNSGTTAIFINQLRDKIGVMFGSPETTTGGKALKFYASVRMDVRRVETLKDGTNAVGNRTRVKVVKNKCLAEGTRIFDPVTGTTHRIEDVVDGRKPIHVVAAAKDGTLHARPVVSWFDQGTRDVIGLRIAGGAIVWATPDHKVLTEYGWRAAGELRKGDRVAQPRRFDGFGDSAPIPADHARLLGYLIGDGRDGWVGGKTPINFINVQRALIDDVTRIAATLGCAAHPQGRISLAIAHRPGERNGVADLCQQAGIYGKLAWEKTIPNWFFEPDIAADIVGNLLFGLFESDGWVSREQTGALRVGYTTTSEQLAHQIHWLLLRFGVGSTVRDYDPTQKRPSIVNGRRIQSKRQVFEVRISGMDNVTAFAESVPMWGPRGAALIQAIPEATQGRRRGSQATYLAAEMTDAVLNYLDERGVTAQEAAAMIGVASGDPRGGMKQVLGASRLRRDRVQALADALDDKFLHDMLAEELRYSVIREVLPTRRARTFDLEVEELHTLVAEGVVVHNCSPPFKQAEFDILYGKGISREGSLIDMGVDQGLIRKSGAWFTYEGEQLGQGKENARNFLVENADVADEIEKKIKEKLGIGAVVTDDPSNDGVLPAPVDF
# [8] = test system: Streptococcus; experiment: GAS UMAA2166 growth inhibition – luminescence, BacTiterGlo, counter-screen for streptokinase expression inhibitor project, dose response (AID 1915); format: functional, organism-based;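 further: potency for reduction of bacterial viability or growth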
# [9] = test system: Streptococcus sp. 'group A'; experiment: Streptococcus pyogenes SK(-)GAS viability under kanamycin – luminescence, BacTiterGlo, confirmation, counter-screen for streptokinase expression inhibitor project, dose response (AID 1900); format: functional, organism-based
# [10] = target: T4, Streptokinase A (Streptococcus pyogenes serotype M1, UniProt P10520); experiment: viability-normalized secreted streptokinase activity reduction – plasminogen activation absorbance, OD405, dose response (AID 1914); format: functional, Streptococcus pyogenes M1 GAS;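 further: secreted streptokinase activity via plasminogen activation per viability signal from cell pellet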
# T4 sequence (P10520 whole entry): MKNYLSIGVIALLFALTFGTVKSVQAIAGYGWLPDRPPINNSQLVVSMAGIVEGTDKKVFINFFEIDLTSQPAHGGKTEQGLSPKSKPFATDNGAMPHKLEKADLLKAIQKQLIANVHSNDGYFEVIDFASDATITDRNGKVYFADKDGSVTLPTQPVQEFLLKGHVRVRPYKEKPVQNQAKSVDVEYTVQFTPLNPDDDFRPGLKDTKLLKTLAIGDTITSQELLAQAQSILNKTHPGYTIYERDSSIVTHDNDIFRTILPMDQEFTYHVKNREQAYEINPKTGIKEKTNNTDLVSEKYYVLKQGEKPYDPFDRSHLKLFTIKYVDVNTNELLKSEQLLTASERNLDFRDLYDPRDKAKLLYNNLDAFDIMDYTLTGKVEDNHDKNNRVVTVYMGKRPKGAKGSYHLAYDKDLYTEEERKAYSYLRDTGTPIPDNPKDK
# [11] = target: T5, Ubiquitin-conjugating enzyme E2 N (Homo sapiens, UniProt P61088); format: functional;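 further: Dose-response confirmation in a TR-FRET assay detecting UBC13-driven polyubiquitin chain formation, inhibition measured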
# T5 sequence (P61088 whole entry): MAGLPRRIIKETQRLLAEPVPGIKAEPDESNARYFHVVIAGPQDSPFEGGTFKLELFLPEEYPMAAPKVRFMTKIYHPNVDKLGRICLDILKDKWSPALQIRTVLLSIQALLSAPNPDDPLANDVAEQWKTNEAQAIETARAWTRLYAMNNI
# [12] = Luminescence Cell-Based Dose Retest to Confirm Inhibitors of Cancer Stem Cells. [Related pubchem assays (depositor defined):AID2717, AID2721]; format: functional; settings: Homo sapiens
# [13] = target: Cytochrome P450 2C19 (Homo sapiens, UniProt P33261); experiment: Cytochrome panel assay with activity outcomes. Panel member name: p450-cyp2c19 Compounds with AC50 equal or less than 10 uM are considered active; format: functional; settings: read-out: AC50
# Sequence of Cytochrome P450 2C19 (P33261 whole entry): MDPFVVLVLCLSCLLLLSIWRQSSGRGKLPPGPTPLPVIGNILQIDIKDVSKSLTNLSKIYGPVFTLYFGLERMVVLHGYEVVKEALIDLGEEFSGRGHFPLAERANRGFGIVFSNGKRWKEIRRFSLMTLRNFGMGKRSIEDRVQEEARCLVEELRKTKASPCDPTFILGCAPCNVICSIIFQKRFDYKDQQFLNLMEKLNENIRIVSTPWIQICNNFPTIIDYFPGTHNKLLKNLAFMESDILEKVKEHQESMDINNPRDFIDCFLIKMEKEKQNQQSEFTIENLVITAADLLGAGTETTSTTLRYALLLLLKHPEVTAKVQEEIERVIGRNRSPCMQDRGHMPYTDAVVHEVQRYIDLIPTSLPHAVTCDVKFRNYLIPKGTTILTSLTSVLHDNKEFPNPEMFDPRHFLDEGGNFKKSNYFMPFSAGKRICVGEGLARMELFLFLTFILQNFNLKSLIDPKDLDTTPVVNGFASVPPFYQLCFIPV
# [14] = test system: H4; experiment: Luminescence Cell-Based Dose Response HTS to Identify Activators of 5'UTR Stem-Loop Driven Prion Protein mRNA Translation in H4 Neuroglioblastoma Cells. [Related pubchem assays: 1829 (Project Summary), 1814 (Primary HTS)]; format: functional; settings: Homo sapiens
# [15] = Luminescence Cell-Based Dose Response HTS to Identify Activators of Luciferase Translation or Activity in H4 […] Cells. [Related pubchem assays: 1829 (Project Summary), 1814 (Primary HTS)]; format: functional
# [16] = target: T6, Cytochrome P450 1A2 (Homo sapiens, UniProt P05177);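 further: PubChem cytochrome P450 panel assay, CYP1A2 panel member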
# T6 sequence (P05177 whole entry): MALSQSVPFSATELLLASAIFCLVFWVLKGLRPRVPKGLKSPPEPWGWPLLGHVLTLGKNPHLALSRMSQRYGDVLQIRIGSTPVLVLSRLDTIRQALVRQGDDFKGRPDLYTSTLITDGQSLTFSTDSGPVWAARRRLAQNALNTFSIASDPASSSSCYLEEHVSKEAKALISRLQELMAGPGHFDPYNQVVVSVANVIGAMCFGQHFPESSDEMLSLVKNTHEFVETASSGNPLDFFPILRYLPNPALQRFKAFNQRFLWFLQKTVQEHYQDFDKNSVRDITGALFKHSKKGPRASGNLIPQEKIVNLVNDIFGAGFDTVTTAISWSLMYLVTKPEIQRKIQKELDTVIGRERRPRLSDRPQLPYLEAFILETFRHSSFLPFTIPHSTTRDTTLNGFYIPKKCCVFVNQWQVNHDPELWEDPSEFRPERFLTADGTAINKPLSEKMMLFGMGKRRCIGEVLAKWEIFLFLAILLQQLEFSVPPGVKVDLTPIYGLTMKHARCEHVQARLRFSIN
# [17] = target: T7, Heat shock factor protein 1 (Mus musculus, UniProt P38532); experiment: decrease of HSF1-responsive luciferase luminescence – cell-based, NIH3T3, dose retest, confirmation (AID 2382); format: functional;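 further: NIH3T3 fibroblasts with HSF1-driven luciferase reporter stressed by proteasome inhibitor MG132; luminescence from HSF1-driven luciferase expression after 8 hours of MG132 stress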
# T7 sequence (P38532 whole entry): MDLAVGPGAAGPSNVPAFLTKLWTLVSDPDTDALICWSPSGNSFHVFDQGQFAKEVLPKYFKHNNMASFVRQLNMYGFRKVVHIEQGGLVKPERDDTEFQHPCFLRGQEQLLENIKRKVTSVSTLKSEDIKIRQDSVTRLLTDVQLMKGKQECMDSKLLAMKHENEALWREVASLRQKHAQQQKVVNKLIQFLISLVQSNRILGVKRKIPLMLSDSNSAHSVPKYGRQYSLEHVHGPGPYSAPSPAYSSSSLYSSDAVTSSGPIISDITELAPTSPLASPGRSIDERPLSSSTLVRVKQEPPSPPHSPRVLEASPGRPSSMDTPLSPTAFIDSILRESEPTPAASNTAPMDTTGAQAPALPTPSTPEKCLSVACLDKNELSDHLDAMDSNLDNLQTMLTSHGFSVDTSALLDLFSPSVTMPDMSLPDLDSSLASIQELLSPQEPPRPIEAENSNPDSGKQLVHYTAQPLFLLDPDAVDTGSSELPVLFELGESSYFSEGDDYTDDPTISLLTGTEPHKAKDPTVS
# Sequence of Cytochrome P450 2C9 (P11712 whole entry): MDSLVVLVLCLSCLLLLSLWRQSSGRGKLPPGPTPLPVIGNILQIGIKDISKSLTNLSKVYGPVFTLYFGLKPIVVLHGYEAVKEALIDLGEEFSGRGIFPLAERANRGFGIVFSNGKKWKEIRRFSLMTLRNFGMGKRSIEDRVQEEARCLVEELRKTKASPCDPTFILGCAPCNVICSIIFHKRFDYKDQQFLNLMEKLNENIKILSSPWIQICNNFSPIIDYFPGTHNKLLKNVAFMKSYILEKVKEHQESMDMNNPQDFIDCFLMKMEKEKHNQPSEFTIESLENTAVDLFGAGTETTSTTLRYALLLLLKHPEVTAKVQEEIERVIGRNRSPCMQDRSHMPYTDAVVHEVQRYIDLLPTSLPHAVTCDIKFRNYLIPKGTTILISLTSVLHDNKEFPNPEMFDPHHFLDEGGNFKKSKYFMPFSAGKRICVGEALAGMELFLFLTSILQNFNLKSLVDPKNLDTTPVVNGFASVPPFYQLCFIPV
smiles,measurement,setting,value
O=C(Cc1c[nH]c2ccccc12)OCC(=O)c1ccccc1,AC50,[1],inconclusive
COc1ccc(NC(=O)CSc2nc3c(c(-c4cccs4)c2C#N)CN(C)CC3)cc1OC,IC50,[2],> 50 µM (not active)
CN(C)C1=C(Cl)C(=O)N(c2ccc(C(F)(F)F)cc2)C1=O,IC50,[3],> 50 µM (inconclusive)
Cc1ccc(C)c(NC(=O)CN(C)C(=O)Cc2coc3cc(C)c(C)cc23)c1,EC50,[4],> 350 µM (not active)
same,EC50,[5],> 350 µM (not active)
CN1c2ccccc2C(C)(C)C12C=Nc1c(ccc3ccccc13)O2 (centres undefined),AC50,[6],32.4 µM (active)
same,EC50,[7],14.4 µM (active)
same,IC50,[2],> 50 µM (not active)
same,EC50,[8],> 150 µM (not active)
same,EC50,[9],3.92 µM (active)
same,EC50,[10],24 µM (active)
NS(=O)(=O)c1ccc(NC(=O)c2ccc(CSc3ccccc3)o2)cc1,EC50,[4],> 350 µM (not active)
same,EC50,[5],> 350 µM (not active)
NC[C@H](Cc1ccccc1)NCCc1cc(C(F)(F)F)cc(C(F)(F)F)c1,IC50,[11],> 20 µM (inactive)
Cc1cc(N2CCN(C)CC2)nc2ccc(NC(=S)N3CCN(c4ccc(F)cc4)CC3)cc12,IC50,[11],> 20 µM (inactive)
same,AC50,[12],5.34 µM (active)
Cc1cnc(CNc2ncnc3ccc(-c4ccccc4CN(C)C)cc23)cn1,AC50,[1],inconclusive
same,AC50,[13],31.6 µM (inconclusive)
COc1ccc(-n2c(=S)[nH]c3sc4c(c3c2=O)CCc2ccccc2-4)cc1,IC50,[2],25.7 µM (active)
COc1ccc(S(=O)(=O)Nc2cccnc2)c(OC)c1,IC50,[3],> 100 µM (not active)
Cc1cc(/C=N/N2CCN(C)CC2)c(C)n1-c1ccc(Cl)cc1,EC50,[4],> 350 µM (not active)
same,EC50,[5],> 350 µM (not active)
CN(C)/N=C/C=C1\CCC/C(=C/c2cccs2)C1=O,EC50,[14],> 120 µM (not active)
same,EC50,[4],5.27 µM (active)
same,EC50,[15],0.452 µM (active)
same,EC50,[5],> 350 µM (not active)
COc1ccc(OC)c(CNC(=O)C2CCCN(S(=O)(=O)N3CCC(C)CC3)C2)c1 (centres undefined),EC50,[4],> 350 µM (not active)
same,EC50,[5],> 350 µM (not active)
Cc1cc(C(=O)OCC(=O)NCCCN2CCCC2=O)c2ccccc2n1,AC50,[1],inconclusive
same,AC50,[16],14.1 µM (inconclusive)
same,AC50,[13],35.5 µM (inconclusive)
O=C(NCCCCO)c1cc(-c2ccc(Cl)cc2Cl)n[nH]1,IC50,[3],> 10 µM (inconclusive)
COc1cc(NC(=S)Nc2cccnc2)cc(OC)c1,IC50,[2],> 50 µM (not active)
CCOC(=O)N1CCN(C(=O)CN(C)S(=O)(=O)c2ccc3c(c2)C(C)(C)C(=O)N3C)CC1,AC50,[1],inconclusive
same,AC50,[13],3.16 µM (inconclusive)
Cn1nc(N)c2c(-c3ccccc3)c(C#N)c(N)nc21,EC50,[17],> 195 µM (not active)
same,IC50,[11],> 20 µM (inactive)
COC(=O)Nc1ccc(=O)n(Cc2c(Cl)cccc2Cl)c1,EC50,[4],> 350 µM (not active)
same,EC50,[5],> 350 µM (not active)
